Data reported in US20170008921A1, “C-3 NOVEL TRITERPENONE WITH C-28 REVERSE AMIDE DERIVATIVES AS HIV INHIBITORS” (HETERO RESEARCH FOUNDATION, priority 2015, published 2017).

Key:
[1] = Cyto-toxicity (MTT assay); type: cell-based
[2] = Single dose oral pharmacokinetic study; type: in vivo; conditions: mouse, Mice oral PK @30 mg/kg, plasma, vehicle 10% Solutol+20% PEG; for AUC(0-t): read-out: AUC0-t; for Cmax: read-out: Cmax
How it was run: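 Rats or mice dosed orally at 30 mg/kg in 10% Solutol+20% PEG. Acetonitrile precipitation, then LC-MS/MS quantification for PK parameters.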

SMILES | viability at 4 days, 0.01 µM [1] | viability at 4 days, 0.1 µM [1] | viability at 4 days, 1 µM [1] | AUC(0-t) [2] | Cmax [2] | viability at 4 days, 0.001 µM [1] | viability at 4 days, 0.003 µM [1]
CC(C)C1=C2[C@H]3CC[C@@H]4[C@@]5(C)CC[C@H](OC(=O)[C@H]6C[C@@H](C(=O)O)C6(C)C)C(C)(C)[C@@H]5CC[C@@]4(C)[C@]3(C)CC[C@@]2(NC(=O)C(C)(C)NC(=O)c2ccc3[nH]cnc3c2)CC1=O [Example 12, (1R,3S)-3-((((3aR,5aR,5bR,7aR,9S,11aR,11bR,13aS)-3a-(2-(1H-benzo[d]imidazole-5-carboxamido)-2-methylpropanamido)-1-isopropyl-5a,5b,8,8,11a-pentamethyl-2-oxo-3,3a,4,5,5a,5b,6,7,7a,8,9,10,11,11a,11b,12,13,13a-octadecahydro-2H-cyclopenta[a]chrysen-9-yl)oxy)carbonyl)-2,2-dimethylcyclobutane-1-carboxylic acid] | 42% | 7% | 3% | 61.3 µg·h/mL | 8540 ng/mL | – | –
CC(C)C1=C2[C@H]3CC[C@@H]4[C@@]5(C)CC[C@H](OC(=O)[C@H]6C[C@@H](C(=O)O)C6(C)C)C(C)(C)[C@@H]5CC[C@@]4(C)[C@]3(C)CC[C@@]2(NC(=O)C(C)(C)NCc2ccccn2)CC1=O [Example 67, (1R,3S)-3-((((3aR,5aR,5bR,7aR,9S,11aR,11bR,13aS)-1-isopropyl-5a,5b,8,8,11a-pentamethyl-3a-(2-methyl-2-((pyridin-2-ylmethyl)amino)propan amido)-2-oxo-3,3a,4,5,5a,5b,6,7,7a,8,9,10,11,11a,11b,12,13,13a-octadecahydro-2H-cyclopenta[a]chrysen-9-yl)oxy)carbonyl)-2,2-dimethylcyclobutane-1-carboxylic acid] | 59% | 21% | 3% | 86.6 µg·h/mL | 24300 ng/mL | – | –
CC(C)C1=C2[C@H]3CC[C@@H]4[C@@]5(C)CC[C@H](OC(=O)[C@H]6C[C@@H](C(=O)O)C6(C)C)C(C)(C)[C@@H]5CC[C@@]4(C)[C@]3(C)CC[C@@]2(NC(=O)C(C)(C)NC(=O)c2ccccc2)CC1=O [Example 3, (1R,3S)-3-((((3aR,5aR,5bR,7aR,9S,11aR,11bR,13aS)-3a-(2-benzamido-2-methylpropanamido)-1-isopropyl-5a,5b,8,8,11a-pentamethyl-2-oxo-3,3a,4,5,5a, 5b,6,7,7a,8,9,10,11,11a,11b,12,13,13a-octadecahydro-2H-cyclopenta[a]chrysen-9-yl)oxy)carbonyl)-2,2-dimethylcyclobutane-1-carboxylic acid] | 32% | 13% | 7% | 545 µg·h/mL | 29600 ng/mL | – | –
CC(C)C1=C2[C@H]3CC[C@@H]4[C@@]5(C)CC[C@H](OC(=O)[C@H]6C[C@@H](C(=O)O)C6(C)C)C(C)(C)[C@@H]5CC[C@@]4(C)[C@]3(C)CC[C@@]2(NC(=O)C2(NC(=O)c3ccc(Cl)cc3)CCCCC2)CC1=O [Example 48, (1R,3S)-3-((((3aR,5aR,5bR,7aR,9S,11aR,11bR,13aS)-3a-(1-(4-chlorobenzamido)cyclohexane-1-carboxamido)-1-isopropyl-5a,5b,8,8,11a-pentamethyl-2-oxo-3,3a,4,5,5a,5b,6,7,7a,8,9,10,11,11a,11b,12,13,13a-octadecahydro-2H-cyclopenta[a]chrysen-9-yl)oxy)carbonyl)-2,2-dimethylcyclobutane-1-carboxylic acid] | 44% | 12% | 4% | 477 µg·h/mL | 20300 ng/mL | – | –
CC(C)C1=C2[C@H]3CC[C@@H]4[C@@]5(C)CC[C@H](OC(=O)[C@H]6C[C@@H](C(=O)O)C6(C)C)C(C)(C)[C@@H]5CC[C@@]4(C)[C@]3(C)CC[C@@]2(NC(=O)C2(NC(=O)c3ncccn3)CCC2)CC1=O [Example 44, (1R,3S)-3-((((3aR,5aR,5bR,7aR,9S,11aR,11bR,13aS)-1-isopropyl-5a,5b,8,8,11a-pentamethyl-2-oxo-3a-(1-(pyrimidine-2-carboxamido)cyclobutane-1-carboxamido)-3,3a,4,5,5a,5b,6,7,7a,8,9,10,11,11a,11b,12,13,13a-octadecahydro-2H-cyclopenta[a]chrysen-9-yl)oxy)carbonyl)-2,2-dimethylcyclobutane-1-carboxylic acid] | 58% | – | – | 154 µg·h/mL | 19800 ng/mL | 84% | 80%
Cc1ccc(C(=O)NC2(C(=O)N[C@@]34CC[C@]5(C)[C@H](CC[C@@H]6[C@@]7(C)CC[C@H](OC(=O)[C@H]8C[C@@H](C(=O)O)C8(C)C)C(C)(C)[C@@H]7CC[C@]65C)C3=C(C(C)C)C(=O)C4)CCCCC2)cc1 [Example 50, (1R,3S)-3-((((3aR,5aR,5bR,7aR,9S,11aR,11bR,13aS)-1-isopropyl-5a,5b,8,8,11a-pentamethyl-3a-(1-(4-methylbenzamido)cyclohexane-1-carboxamido)-2-oxo-3,3a,4,5,5a,5b,6,7,7a,8,9,10,11,11a,11b,12,13,13a-octadecahydro-2H-cyclopenta[a]chrysen 9-yl)oxy)carbonyl)-2,2-dimethylcyclobutane-1-carboxylic acid] | 21% | 0% | 0% | 454 µg·h/mL | 23300 ng/mL | – | –
CC(C)C1=C2[C@H]3CC[C@@H]4[C@@]5(C)CC[C@H](OC(=O)[C@H]6C[C@@H](C(=O)O)C6(C)C)C(C)(C)[C@@H]5CC[C@@]4(C)[C@]3(C)CC[C@@]2(NC(=O)C(C)(C)NC(=O)c2ccc3ccccc3n2)CC1=O [Example 28, (1R,3S)-3-((((3aR,5aR,5bR,7aR,9S,11aR,11bR,13aS)-1-isopropyl-5a,5b,8,8,11a-pentamethyl-3a-(2-methyl-2-(quinoline-2-carboxamido)propanamido)-2-oxo-3,3a,4,5,5a,5b,6,7,7a,8,9,10,11,11a,11b,12,13,13a-octadecahydro-2H-cyclopenta[a]chrysen-9-yl)oxy)carbonyl)-2,2-dimethylcyclobutane-1-carboxylic acid] | 21% | 10% | 6% | 345 µg·h/mL | 16200 ng/mL | – | –
CC(C)C1=C2[C@H]3CC[C@@H]4[C@@]5(C)CC[C@H](OC(=O)[C@H]6C[C@@H](C(=O)O)C6(C)C)C(C)(C)[C@@H]5CC[C@@]4(C)[C@]3(C)CC[C@@]2(NC(=O)C2(NC(=O)c3ccc(Cl)cc3)CCCC2)CC1=O [Example 46, (1R,3S)-3-((((3aR,5aR,5bR,7aR,9S,11aR,11bR,13aS)-3a-(1-(4-chlorobenzamido)cyclopentane-1-carboxamido)-1-isopropyl-5a,5b,8,8,11a-pentamethyl-2-oxo-3,3a,4,5,5a,5b,6,7,7a,8,9,10,11,11a,11b,12,13,13a-octadecahydro-2H-cyclopenta[a]chrysen-9-yl)oxy)carbonyl)-2,2-dimethylcyclobutane-1-carboxylic acid] | 52% | 12% | 4% | 836 µg·h/mL | 29500 ng/mL | – | –
Cc1cnc(C(=O)NC(C)(C)C(=O)N[C@@]23CC[C@]4(C)[C@H](CC[C@@H]5[C@@]6(C)CC[C@H](OC(=O)[C@H]7C[C@@H](C(=O)O)C7(C)C)C(C)(C)[C@@H]6CC[C@]54C)C2=C(C(C)C)C(=O)C3)cn1 [Example 7, (1R,3S)-3-((((3aR,5aR,5bR,7aR,9S,11aR,11bR,13aS)-1-isopropyl-5a,5b,8,8,11a-pentamethyl-3a-(2-methyl-2-(5-methylpyrazine-2-carboxamido)propanamido)-2-oxo-3,3a,4,5,5a,5b,6,7,7a,8,9,10,11,11a,11b,12,13,13a-octadecahydro-2H-cyclopenta[a]chrysen-9-yl)oxy)carbonyl)-2,2-dimethylcyclobutane-1-carboxylic acid] | 28% | 9% | 0% | 517 µg·h/mL | 41900 ng/mL | – | –
CC(C)C1=C2[C@H]3CC[C@@H]4[C@@]5(C)CC[C@H](OC(=O)[C@H]6C[C@@H](C(=O)O)C6(C)C)C(C)(C)[C@@H]5CC[C@@]4(C)[C@]3(C)CC[C@@]2(NC(=O)C(C)(C)NC(=O)c2ccc(Cl)c(Cl)c2)CC1=O [Example 4, (1R,3S)-3-((((3aR,5aR,5bR,7aR,9S,11aR,11bR,13aS)-3a-(2-(3,4-dichlorobenzamido)-2-methylpropanamido)-1-isopropyl-5a,5b,8,8,11a-pentamethyl-2-oxo-3,3a,4,5,5a,5b,6,7,7a,8,9,10,11,11a,11b,12,13,13a-octadecahydro-2H-cyclopenta[a]chrysen-9-yl)oxy)carbonyl)-2,2-dimethylcyclobutane-1-carboxylic acid] | 20% | 12% | 9% | 185 µg·h/mL | 8840 ng/mL | – | –
CC(C)C1=C2[C@H]3CC[C@@H]4[C@@]5(C)CC[C@H](OC(=O)[C@H]6C[C@@H](C(=O)O)C6(C)C)C(C)(C)[C@@H]5CC[C@@]4(C)[C@]3(C)CC[C@@]2(NC(=O)C(C)(C)NC(=O)c2ccc(F)cc2)CC1=O [Example 22, (1R,3S)-3-((((3aR,5aR,5bR,7aR,9S,11aR,11bR,13aS)-3a-(2-(4-fluorobenzamido)-2-methylpropanamido)-1-isopropyl-5a,5b,8,8,11a-pentamethyl-2-oxo-3,3a, 4,5,5a,5b,6,7,7a,8,9,10,11,11a,11b,12,13,13a-octadecahydro-2H-cyclopenta[a]chrysen-9-yl)oxy)carbonyl)-2,2-dimethylcyclobutane-1-carboxylic acid] | 21% | 3% | 3% | 490 µg·h/mL | 23600 ng/mL | – | –
